Our source for the TGI and GI50 values is PubChem BioAssay (NCI).

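Dose response: 5 concentrations. Exposure: 48 h. Format: 96-well plates. Endpoint: linear interpolation; highest concentration if not reached. At the GI50, growth is halved. TGI denotes the concentration required for complete inhibition of growth.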

Test systems include OVCAR-5 ovarian; SNB-19 CNS; NCI-H226 lung; K-562 leukemia; NCI-H23 lung; UO-31 renal; OVCAR-4 ovarian; HOP-92 NSCLC; BT-549 breast; SR leukemia.
What all share (assay): growth of human tumour cells (NCI), 48 h

Regarding `COCc1nc2c(OC)c(-c3nc4nc(N5CCN(C)CC5)ccc4[nH]3)cc(OC)c2n1C`, the TGI in the assay with OVCAR-5 ovarian was greater than 100 µM; with SNB-19 CNS it was greater than 100 µM; in the assay on NCI-H226 lung, 87.4 µM; in the assay with K-562 leukemia it was greater than 100 µM; in the assay with NCI-H23 lung, greater than 100 µM; in the assay on UO-31 renal it was 76.9 µM. For the same compound, the TGI in the assay with OVCAR-4 ovarian, in the assay with HOP-92 NSCLC and in the assay on BT-549 breast was greater than 100 µM each time.
Take `C=CCCC1(CC(Sc2ccccc2)P(=O)(c2ccccc2)c2ccccc2)OCCO1` (configuration not stated): the TGI with SR leukemia, in the assay with OVCAR-5 ovarian, in the assay with SNB-19 CNS, in the assay on NCI-H226 lung, in the assay with K-562 leukemia and with NCI-H23 lung was greater than 10 µM throughout. Also, the TGI in the assay with UO-31 renal, with OVCAR-4 ovarian and with BT-549 breast was greater than 10 µM each time.
Consider `CC(C)=CCC(O)[C@](C)(O)[C@H]1[C@H](O)C[C@@]2(C)[C@@H]3CCc4cc(O)c(OC5OC(CO)C(O)C(O)C5O)cc4C3(C)C(=O)C[C@]12C` (some centres not stated), for which the TGI with SR leukemia, with OVCAR-5 ovarian, with SNB-19 CNS, with NCI-H226 lung, in the assay on K-562 leukemia and in the assay with NCI-H23 lung was greater than 100 µM each time. Also, the TGI in the assay with UO-31 renal, in the assay with OVCAR-4 ovarian, in the assay with HOP-92 NSCLC and in the assay with BT-549 breast was greater than 100 µM each time.
As for `C[C@@H](c1ccccc1)n1c(N)c(C#N)c2ccc([N+](=O)[O-])cc2c1=O`, the TGI in the assay with SR leukemia came to 12.2 µM; in the assay on SNB-19 CNS, 29.1 µM; in the assay with NCI-H226 lung, 13.2 µM; in the assay on K-562 leukemia it was 26.1 µM; with NCI-H23 lung it was 43 µM; in the assay with UO-31 renal, 24.1 µM. Besides, the TGI came to 35.7 µM with OVCAR-4 ovarian, 24 µM in the assay on HOP-92 NSCLC and 30 µM with BT-549 breast.
For the compound `C/C(=N/NC(N)=S)c1ccc[nH]1`, the TGI in the assay on OVCAR-5 ovarian, in the assay on SNB-19 CNS, in the assay on NCI-H226 lung, with K-562 leukemia, in the assay with NCI-H23 lung and with UO-31 renal was greater than 100 µM each time. For the same compound, the TGI with OVCAR-4 ovarian, in the assay on HOP-92 NSCLC and in the assay with BT-549 breast was greater than 100 µM in each case.
Regarding `O=C(Nc1nnc(-c2ccc(Cl)cc2)o1)C(SC(=S)N1CCOCC1)c1ccccc1` (configuration not stated), the TGI with SR leukemia is greater than 100 µM; in the assay on OVCAR-5 ovarian it was 88.2 µM; in the assay on SNB-19 CNS, greater than 100 µM; in the assay with NCI-H226 lung, 56.4 µM; in the assay on K-562 leukemia, greater than 100 µM; in the assay on NCI-H23 lung it was 70.6 µM. For the same compound, the TGI was 30 µM in the assay with UO-31 renal, greater than 100 µM with OVCAR-4 ovarian and 62.5 µM in the assay on BT-549 breast.
On to `Cc1ccc([N+](=O)[O-])c2c(NCCC[N+](C)(C)[O-])c3ccccc3nc12`, for which the TGI in the assay with OVCAR-5 ovarian is 10.2 µM; with SNB-19 CNS, 6.56 µM; in the assay on NCI-H226 lung, 5.17 µM; in the assay on K-562 leukemia it was greater than 38.3 µM; with NCI-H23 lung, 3.41 µM; in the assay on UO-31 renal, 42.6 µM. For the same compound, the results for the TGI with OVCAR-4 ovarian, in the assay with HOP-92 NSCLC and with BT-549 breast were 21.2 µM, 5.04 µM and 4.81 µM, respectively.
As for `COC(=O)C1=CS/C(=C2\S[C@@H]3[C@H](S2)[C@H]2C=C[C@@H]3C2)S1`, the TGI with SR leukemia was greater than 100 µM; in the assay on SNB-19 CNS, greater than 100 µM; with NCI-H226 lung, greater than 100 µM; in the assay with K-562 leukemia it was 18.5 µM; in the assay with NCI-H23 lung, greater than 100 µM; with UO-31 renal, greater than 100 µM. The TGI in the assay on OVCAR-4 ovarian, in the assay with HOP-92 NSCLC and with BT-549 breast was greater than 100 µM in each case.
Regarding `CC(C)OC(=O)/C=C/C(=O)O/C=C/[N+](=O)[O-]`, the TGI with SR leukemia was 71.6 µM; with OVCAR-5 ovarian it was greater than 100 µM; with SNB-19 CNS, greater than 100 µM; in the assay on NCI-H226 lung, greater than 100 µM; with K-562 leukemia it was 66.8 µM; with NCI-H23 lung, greater than 100 µM. The results for the TGI in the assay with UO-31 renal, in the assay on OVCAR-4 ovarian and in the assay on BT-549 breast were greater than 100 µM, greater than 100 µM and 90.4 µM, respectively.
For `CCOC(=O)c1cc2c3ccn(Cc4ccccc4)c3c3c(C)[nH]oc3c2n1`, the TGI in the assay on SR leukemia, in the assay on OVCAR-5 ovarian, with SNB-19 CNS, in the assay with NCI-H226 lung, with K-562 leukemia and in the assay with NCI-H23 lung was greater than 100 µM throughout. Besides, the TGI in the assay with UO-31 renal, in the assay on OVCAR-4 ovarian and in the assay on BT-549 breast was greater than 100 µM each time.
Regarding `COc1ccccc1CNCCCN1C(=O)c2ccc3c4c(ccc(c24)C1=O)C(=O)N(CCCNCCNCCCN)C3=O`, the GI50 in the assay on OVCAR-5 ovarian is 5.24 µM; with SNB-19 CNS it was 2180 nM; in the assay on NCI-H226 lung, 2990 nM; in the assay on K-562 leukemia it was 3.24 µM; in the assay on NCI-H23 lung it was 1720 nM; with UO-31 renal, 10.8 µM. In addition, the GI50 in the assay with OVCAR-4 ovarian is 466 nM; with HOP-92 NSCLC, 6.7 µM; in the assay on BT-549 breast, 2580 nM. Moreover, the TGI in the assay on OVCAR-5 ovarian turned out to be 19.8 µM; in the assay on SNB-19 CNS it was 11.8 µM; with NCI-H226 lung, 21.3 µM; in the assay on K-562 leukemia it was 16.7 µM; in the assay with NCI-H23 lung it was 5.59 µM; with UO-31 renal, 84.5 µM. Besides, the values for the TGI with OVCAR-4 ovarian, with HOP-92 NSCLC and in the assay with BT-549 breast were 1.68 µM, 38.8 µM and 6.43 µM, respectively.
Consider `N#CCCC(CCC#N)(CCC#N)NO`, for which the TGI in the assay on SR leukemia, with OVCAR-5 ovarian, with SNB-19 CNS, in the assay on NCI-H226 lung, in the assay on K-562 leukemia and in the assay with NCI-H23 lung was greater than 100 µM throughout. In addition, the TGI with UO-31 renal, with HOP-92 NSCLC and in the assay with BT-549 breast was greater than 100 µM throughout.
For `Cn1c([C@H](C#N)c2ncccc2[N+](=O)[O-])nc2ccccc21`, the TGI in the assay with SR leukemia, in the assay with OVCAR-5 ovarian, in the assay with SNB-19 CNS, in the assay with NCI-H226 lung, in the assay with K-562 leukemia and in the assay with NCI-H23 lung was greater than 100 µM throughout. Also, the TGI with UO-31 renal, with HOP-92 NSCLC and with BT-549 breast was greater than 100 µM throughout.
